The subject of this test is Klebsiella pneumoniae. The test can be described thus: Antimicrobial activity against multidrug-resistant Klebsiella pneumoniae isolate Kpn-DK2 by broth microdilution method. The class given is functional. In general terms: Broth dilution looks for growth in wells or tubes with falling amounts of substance.

Values after ≈ are worked out from the molar mass of the structure shown.

`C[C@@H](O)[C@H]1C(=O)N2C(C(=O)O)=C(S[C@@H]3CN[C@H](CNS(N)(=O)=O)C3)[C@H](C)[C@H]12` [DORIPENEM] had an MIC of 16 µg/mL (≈ 38 µM).

Consider `CC(C)(O/N=C(\C(=O)N[C@@H]1C(=O)N2C(C(=O)[O-])=C(C[n+]3ccccc3)CS[C@H]12)c1csc(N)n1)C(=O)O` [CEFTAZIDIME], for which the MIC is greater than 64 µg/mL.

Compound `C[C@@H](O)[C@H]1C(=O)N2C(C(=O)O)=C(SCCNC=N)C[C@H]12` [IMIPENEM ANHYDROUS] displayed an MIC of 32 µg/mL (≈ 107 µM).

For COLISTIN, the MIC was greater than 64 µg/mL.

In turn, `COc1cc(Cc2cnc(N)nc2N)cc(OC)c1OC` [TRIMETHOPRIM] came in with an MIC greater than 32 µg/mL.

The compound `CC1(C)S[C@@H]2[C@H](NC(=O)[C@H](N)c3ccccc3)C(=O)N2[C@H]1C(=O)O` [AMPICILLIN] came in with an MIC greater than 64 µg/mL.

`CCN1CCN(C(=O)N[C@@H](C(=O)N[C@@H]2C(=O)N3C(C(=O)O)=C(CSc4nnnn4C)CS[C@H]23)c2ccc(O)cc2)C(=O)C1=O` [CEFOPERAZONE] yielded an MIC greater than 64 µg/mL.

Consider `C[C@]1(Cn2ccnn2)[C@H](C(=O)O)N2C(=O)C[C@H]2S1(=O)=O` [TAZOBACTAM], for which the minimum inhibitory concentration (MIC) stood at 4 µg/mL (≈ 13.3 µM).

Regarding `CN(C)c1cc(NC(=O)CNC(C)(C)C)c(O)c2c1C[C@H]1C[C@H]3[C@H](N(C)C)C(O)=C(C(N)=O)C(=O)[C@@]3(O)C(O)=C1C2=O` [TIGECYCLINE], it took 4 µg/mL (≈ 6.83 µM) to inhibit growth (MIC).

In turn, `Nc1nc(/C(=N/O)C(=O)N[C@@H]2C(=O)N3C(C(=O)O)=C(/C=C4\CCN([C@@H]5CCNC5)C4=O)CS[C@H]23)ns1` [CEFTOBIPROLE] displayed an MIC greater than 32 µg/mL.

`CO/N=C(\C(=O)N[C@@H]1C(=O)N2C(C(=O)O)=C(COC(C)=O)CS[C@H]12)c1csc(N)n1` [CEFOTAXIME] yielded an MIC greater than 128 µg/mL.

Compound GENTAMICIN registered an MIC greater than 64 µg/mL.

`CC1(C)[C@H](C(=O)O)N2C(=O)C[C@H]2S1(=O)=O` [SULBACTAM]: the MIC came out at 32 µg/mL (≈ 137 µM).

The compound POLYMYXIN B registered an MIC greater than 64 µg/mL.

As to `C[C@H]1[C@H](NC(=O)/C(=N\OC(C)(C)C(=O)O)c2csc(N)n2)C(=O)N1S(=O)(=O)O` [AZTREONAM], the MIC was greater than 64 µg/mL.

For `CCN1CCN(C(=O)N[C@@H](C(=O)N[C@@H]2C(=O)N3[C@@H]2SC(C)(C)[C@@H]3C(=O)O)c2ccccc2)C(=O)C1=O` [PIPERACILLIN], the MIC is greater than 256 µg/mL.

As to `CO/N=C(\C(=O)N[C@@H]1C(=O)N2C(C(=O)[O-])=C(C[N+]3(C)CCCC3)CS[C@H]12)c1csc(N)n1`, the MIC is greater than 64 µg/mL.

What is called MIC is the lowest concentration that inhibits growth of the organism.

The values are drawn from ChEMBL document CHEMBL1255461, “KPC-producing extreme drug-resistant Klebsiella pneumoniae isolate from a patient with diabetes mellitus and chronic renal failure on hemodialysis in South Korea” (2010).
